# Assay results published in US20070259959A1, “Ppar Agonists for the Treatment of Hcv Infection” (priority 2003, published 2007).
# System: HCV
# Test: Inhibition of HCV infection of cultured human hepatocytes (quantitative RT-PCR of HCV RNA)
# Format: cell-based
# Conditions: cultured human hepatocytes infected with infectious human serum; fenofibric acid tested at 50 μM and 500 μM; HCV RNA copies/350,000 cells four days after infection; 0.5% DMSO
# Experimental: Isolated human hepatocytes from surgical liver resection were seeded in 24 well microplates at the density of 3×10^5 cells/well. Cells were allowed to attach and recover 24 hours and then medium was replaced with a fresh one containing different concentrations of fenofibric acid (50 μM and 500 μM). Hepatocytes were incubated 24 hours with the indicated amounts of fenofibric acid, then medium was replaced with fresh one containing the same amounts of fenofibric acid and a fixed amount (100 μl) of an infectious human serum from a patient chronically infected with HCV. Cells were incubated 18 hours with the virus to allow infection, then washed and incubated for four days. Total RNA was extracted and viral replication was measured by quantitative RT-PCR.
# Typically, 10^4 to 10^5 copies of genomes per well are detected after four days from infection. To be sure that the measured viral RNA derived from active replication, a small molecule inhibitor of the viral replicase was included as a positive control.
# Viral replication was measured on total RNA by quantitative PCR and expressed as number of HCV copies/350,000 cells. The experiment was performed in triplicate wells and values are shown with standard deviations. Fenofibric acid was dissolved in DMSO and tested at 50 μM and 500 μM. […]
structure (smiles),measurement,value
CC(C)(Oc1ccc(C(=O)c2ccc(Cl)cc2)cc1)C(=O)O [fenofibric acid],reduction of HCV infectivity,up to 90%
